Data on 28 molecules can be found in patent US20250197375A1, “PYRIMIDINES AND METHODS OF THEIR USE” (Kineta, Inc., priority 2021, published 2025).

For orientation: IC50 means the concentration that gives 50% inhibition.

In assay [1] the target is full-length human PIKFYVE (Homo sapiens (Human), UniProt Q9Y2I7, L932S/Q1183K/Q995L/S1033A/S696N/T998S). The experiment in a line: PIKfyve Biochemical Assay (ADP-Glo Kinase assay, GST-PIKFYVE). The note with it: ADP-Glo, 1 hour at room temperature, 10 μM to 3 nM in duplicate; read-out: PIKfyve Biochemistry IC50 (μM)*. How it is done: PIKfyve Biochemical Assay. The biochemical PIKFyve inhibition assays were run by Cama Biosciences according to proprietary methodology based on the Promega ADP-Glo™ Kinase assay. […] GST-PIKFYVE was purified by using glutathione sepharose chromatography and used in an ADP-Glo™ Kinase assay (Promega). Reactions were set up by adding the test compound solution, substrate solution, ATP solution and kinase solution, each at 4× final concentrations. Reactions were prepared with assay buffer (50 mM MOPS, 1 mM DTT, pH7.2), mixed, and incubated in black 384 well polystyrene plates for 1 hour at room temperature. ADP-Glo™ reagent was then added for 40 minutes, followed by kinase detection reagent for an additional 40 minutes. The kinase activity was evaluated by detecting relative light units on a luminescence plate reader. Samples were run in duplicate from 10 μM to 3 nM. […] IC50 values were calculated from concentration versus percent inhibition curves by fitting to a four-parameter logistic curve.
full-length human PIKFYVE, sequence (Q9Y2I7 whole entry S696N/L932S/Q995L/T998S/S1033A/Q1183K): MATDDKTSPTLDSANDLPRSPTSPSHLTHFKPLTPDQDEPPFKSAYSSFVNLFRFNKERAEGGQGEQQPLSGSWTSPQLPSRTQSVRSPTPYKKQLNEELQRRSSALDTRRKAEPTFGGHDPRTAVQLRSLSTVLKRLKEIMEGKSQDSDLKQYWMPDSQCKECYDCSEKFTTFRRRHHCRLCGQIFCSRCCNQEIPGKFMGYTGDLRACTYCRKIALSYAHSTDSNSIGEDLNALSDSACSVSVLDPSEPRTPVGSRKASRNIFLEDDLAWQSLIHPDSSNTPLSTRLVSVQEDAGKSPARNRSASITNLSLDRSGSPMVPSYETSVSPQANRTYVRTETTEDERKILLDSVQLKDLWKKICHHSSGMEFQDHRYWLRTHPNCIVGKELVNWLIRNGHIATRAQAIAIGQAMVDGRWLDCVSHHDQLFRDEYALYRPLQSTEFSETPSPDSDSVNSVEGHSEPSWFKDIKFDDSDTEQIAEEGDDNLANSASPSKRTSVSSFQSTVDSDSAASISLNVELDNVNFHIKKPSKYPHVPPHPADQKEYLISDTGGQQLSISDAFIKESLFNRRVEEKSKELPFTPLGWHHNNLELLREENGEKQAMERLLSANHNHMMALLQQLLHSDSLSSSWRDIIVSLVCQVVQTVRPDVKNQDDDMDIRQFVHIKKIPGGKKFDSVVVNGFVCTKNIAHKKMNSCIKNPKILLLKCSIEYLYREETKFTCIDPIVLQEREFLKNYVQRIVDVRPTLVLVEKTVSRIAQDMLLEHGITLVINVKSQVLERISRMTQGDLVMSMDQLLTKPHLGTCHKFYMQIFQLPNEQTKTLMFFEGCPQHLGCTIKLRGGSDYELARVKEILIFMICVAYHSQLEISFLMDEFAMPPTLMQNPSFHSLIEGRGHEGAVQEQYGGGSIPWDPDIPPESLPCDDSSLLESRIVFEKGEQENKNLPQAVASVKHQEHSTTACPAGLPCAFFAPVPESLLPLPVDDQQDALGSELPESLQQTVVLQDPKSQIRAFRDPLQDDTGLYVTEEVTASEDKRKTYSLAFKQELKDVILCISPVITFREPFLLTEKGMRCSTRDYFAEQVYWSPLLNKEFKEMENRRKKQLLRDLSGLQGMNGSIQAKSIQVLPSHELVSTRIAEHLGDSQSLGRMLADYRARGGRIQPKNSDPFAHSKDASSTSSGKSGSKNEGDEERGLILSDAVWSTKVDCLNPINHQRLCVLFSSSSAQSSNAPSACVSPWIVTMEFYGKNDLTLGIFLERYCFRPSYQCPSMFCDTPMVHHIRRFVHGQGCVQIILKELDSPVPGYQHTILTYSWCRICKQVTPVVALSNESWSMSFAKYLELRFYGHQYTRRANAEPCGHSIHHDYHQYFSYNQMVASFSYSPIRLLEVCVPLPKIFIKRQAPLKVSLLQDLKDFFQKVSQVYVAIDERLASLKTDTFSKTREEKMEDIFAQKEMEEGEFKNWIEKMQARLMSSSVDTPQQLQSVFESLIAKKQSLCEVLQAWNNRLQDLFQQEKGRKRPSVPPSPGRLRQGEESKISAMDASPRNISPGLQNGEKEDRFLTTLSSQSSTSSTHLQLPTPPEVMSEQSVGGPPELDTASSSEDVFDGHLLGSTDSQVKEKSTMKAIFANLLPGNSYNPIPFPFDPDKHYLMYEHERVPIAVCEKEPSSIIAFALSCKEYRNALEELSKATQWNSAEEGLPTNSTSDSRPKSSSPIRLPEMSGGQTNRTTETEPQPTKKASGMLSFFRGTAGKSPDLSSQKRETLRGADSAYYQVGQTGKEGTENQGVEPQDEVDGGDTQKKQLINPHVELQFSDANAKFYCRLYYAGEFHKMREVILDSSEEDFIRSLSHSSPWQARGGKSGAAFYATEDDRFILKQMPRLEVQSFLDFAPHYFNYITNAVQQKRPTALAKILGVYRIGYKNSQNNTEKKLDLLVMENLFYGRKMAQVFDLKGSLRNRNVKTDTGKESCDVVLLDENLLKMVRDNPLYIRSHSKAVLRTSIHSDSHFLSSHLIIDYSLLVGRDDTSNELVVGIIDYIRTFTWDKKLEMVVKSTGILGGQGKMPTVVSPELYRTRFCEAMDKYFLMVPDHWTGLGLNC
The biochemical PIKFyve inhibition assays were run by Cama Biosciences according to proprietary methodology based on the Promega ADP-Glo™ Kinase assay. […] GST-PIKFYVE was purified by using glutathione sepharose chromatography and used in an ADP-Glo™ Kinase assay (Promega).
Reactions were set up by adding the test compound solution, substrate solution, ATP solution and kinase solution, each at 4× final concentrations. Reactions were prepared with assay buffer (50 mM MOPS, 1 mM DTT, pH7.2), mixed, and incubated in black 384 well polystyrene plates for 1 hour at room temperature. ADP-Glo™ reagent was then added for 40 minutes, followed by kinase detection reagent for an additional 40 minutes. The kinase activity was evaluated by detecting relative light units on a luminescence plate reader. Samples were run in duplicate from 10 uM to 3 nM. […] IC50 values were calculated from concentration vs % inhibition curves by fitting to a four-parameter logistic curve.
(ADP-Glo turns the ADP formed in a reaction into a luminescent signal.)

The target of assay [2] is PIKfyve (Homo sapiens (Human), UniProt Q9Y2I7). The experiment in a line: PIKfyve EEA1 Assay (endosomal vesicle enlargement, high content imaging in U2OS cells). Type of assay: cell-based. The note with it: 3 hours of treatment, activity relative to maximal APY0201 activity. How it is done:
PIKfyve EEA1 Assay. Genetic or pharmacological disruption of PIKfyve activity results in enlargement of endosomal vesicles. This enlargement was utilized as a surrogate readout of PIKFyve inhibition for routine triage of PIKfyve inhibitors. U2OS cells grown in 96-well assay plates were treated with compound diluted in DMEM media containing 10% fetal bovine serum. After 3 hours of treatment, cells were fixed with paraformaldehyde, permeabilized with 0.2% Triton-X in phosphate buffered saline and stained against EEA1. During the secondary antibody staining, cells were also stained with CellMask™ Deep Red and Hoechst to detect cytoplasms and nuclei respectively. Endosomal structures were visualized using a high content imager at 40× magnification. Images were analyzed using a linear classifier algorithm integrating EEA1 spot size, intensity and texture trained on images of cells treated with the potent reference compound APY0201. Compound activity was calculated by subtracting the DMSO signal and calculating percentage activity relative to maximal APY0201 activity. IC50 values were then calculated from concentration versus percent inhibition data by logistic regression.

PIKfyve, sequence (Q9Y2I7 whole entry): as the sequence (Q9Y2I7 whole entry S696N/L932S/Q995L/T998S/S1033A/Q1183K) above, with N696S, S932L, L995Q, S998T, A1033S, K1183Q counted along it

On to `Cn1ccc(-c2cccc(-c3nc(N4CCOCC4)nc(Nc4ccncc4)c3-c3ncco3)c2)n1` [Compound 74, 6-[3-(1-methylpyrazol-3-yl)phenyl]-2-morpholino-5-oxazol-2-yl-N-(4-pyridyl)pyrimidin-4-amine], for which the IC50 in assay [1] is 0.01 to 0.1 µM; in assay [2], 0.1 to 1 µM. In the same order, the values of `COc1c(C(=O)Nc2ccccc2)nc(N2CCOCC2)nc1-c1ccn(-c2ccccc2)n1` [Compound 1, 5-methoxy-2-morpholino-N-phenyl-6-(1-phenyl-1H-pyrazol-3-yl)pyrimidine-4-carboxamide] are 0.01 to 0.1 µM and 1 to 10 µM. In the same order, the values of `COc1cc(-c2nc(N3CCOCC3)nc(Nc3ccncc3)c2OC)cnc1OC` [Compound 12, 6-(5,6-dimethoxypyridin-3-yl)-5-methoxy-2-morpholino-N-(pyridin-4-yl)pyrimidin-4-amine] are under 0.01 µM and 0.1 to 1 µM. Consider `CN(C)C(=O)c1c(Nc2ccncc2)nc(N2CCOCC2)nc1-c1cccc(-n2cccn2)c1` [Compound 33], for which the concentration for half-maximal inhibition (IC50) in assay [1] lay in the range of 0.01 to 0.1 µM; in assay [2], 0.1 to 1 µM. Take `COc1c(Nc2ccncc2)nc(N2CCOCC2)nc1-c1cccc(-c2nn(C)cc2C)c1` [Compound 41]: the IC50 in assay [1] fell in the range of 0.01 to 0.1 µM; in assay [2], 0.1 to 1 µM. On the same counts, the results for `Cn1ccc(-c2cc3c(cn2)COc2c(Nc4ccncc4)nc(N4CCOCC4)nc2-3)n1` [Compound 38, 9-(1-methyl-1H-pyrazol-3-yl)-2-morpholino-N-(pyridin-4-yl)-6H-pyrido[4′,3′:4,5]pyrano[3,2-d]pyrimidin-4-amine] are 0.01 to 0.1 µM and 0.1 to 1 µM. In the same order, the values of `COc1c(C(=O)NC2CC2)nc(N2CCOCC2)nc1-c1cccc(-c2ccn(C)n2)c1` [Compound 6, N-cyclopropyl-4-methoxy-6-(3-(1-methyl-H-pyrazol-3-yl)phenyl)-2-morpholino pyrimidine-4-carboxamide] are 0.01 to 0.1 µM and 1 to 10 µM.

On to `Cn1ccc(-c2ccc3c(c2)-c2nc(N4CCOCC4)nc(Nc4ccncc4)c2OC3)n1` [Compound 49, 9-(1-methyl-1H-pyrazol-3-yl)-2-morpholino-N-(pyridin-4-yl)-6H-isochromeno[4,3-d]pyrimidin-4-amine], for which the IC50 in assay [1] was in the range of 0.01 to 0.1 µM; in assay [2], 0.1 to 1 µM. In the same order, the values of `COc1c(-c2cccc(-c3ccn(C)n3)c2)nc(N2CCOCC2)nc1C(O)c1ccncc1` (stereo not shown) [Compound 32] are 0.1 to 1 µM and 1 to 10 µM. In the same order, the values of `COc1ccc(-c2nc(N3CCOCC3)nc(Nc3ccncc3)c2OC)cc1OC` [Compound 13, 6-(3,4-dimethoxyphenyl)-5-methoxy-2-morpholino-N-(pyridin-4-yl)pyrimidin-4-amine] are under 0.01 µM and 0.1 to 1 µM. In the same order, the values of `COc1c(Nc2ccncc2)nc(N2CCOCC2)nc1-c1cccc(N2CCN(C)C(=O)C2)c1` [Compound 15, 4-(3-(5-methoxy-2-morpholino-6-(pyridin-4-ylamino)pyrimidin-4-yl)phenyl)-1-methylpiperazin-2-one] are 0.01 to 0.1 µM and 0.1 to 1 µM. On to `COc1c(Nc2ccc(C)cc2)nc(N2CCOCC2)nc1-c1cc(-c2ccn(C)n2)cnn1` [Compound 17, 5-methoxy-6-(5-(1-methyl-1H-pyrazol-3-yl)pyridazin-3-yl)-2-morpholino-N-(p-tolyl)pyrimidin-4-amine], for which the concentration for half-maximal inhibition (IC50) is under 0.01 µM in assay [1] and 0.01 to 0.1 µM in assay [2].

Turning to `CN1CCCC(Oc2nc(N3CCOCC3)nc3c2OCc2cc(-c4ccccc4)nn2-3)C1` (stereo not shown) [Compound 35, 4-((1-methylpiperidin-3-yl)oxy)-2-morpholino-8-phenyl-6H-pyrazolo[1,5-d]pyrimido[5,4-b][1,4]oxazine], the IC50 in assay [2] is 1 to 10 µM. In assay [2], `COc1c(Nc2cccnc2)nc(N2CCOCC2)nc1-c1cccc(-c2ccn(C)n2)c1` [Compound 20, 5-methoxy-6-(3-(1-methyl-1H-pyrazol-3-yl)phenyl)-2-morpholino-N-(pyridin-3-yl)pyrimidin-4-amine] registered a 50% inhibitory concentration (IC50) of 0.1 to 1 µM. On the same count and under the same terms, the figure for `COc1c(Nc2cccnc2)nc(N2CCOCC2)nc1-c1cccc(N2CCOCC2=O)c1` [Compound 28, 4-(3-(5-methoxy-2-morpholino-6-(pyridin-3-ylamino)pyrimidin-4-yl)phenyl)morpholin-3-one] is 1 to 10 µM; for `Cn1ccc(-c2cccc(-c3nc(N4CCOCC4)nc(Nc4cccnc4)c3[S+](C)[O-])c2)n1` (stereo not shown) [Compound 59] it is 1 to 10 µM; for `COc1cc(-c2nc(N3CCOCC3)nc(Nc3cccnc3)c2OC)cnc1OC` [Compound 18, 6-(5,6-dimethoxypyridin-3-yl)-5-methoxy-2-morpholino-N-(pyridin-3-yl)pyrimidin-4-amine] it is 1 to 10 µM. Still for that read-out and setting: for `COc1c(Nc2ccncc2)nc(OC[C@H]2COCCN2)nc1-c1cccc(-c2ccn(C)n2)c1` [Compound 42, (R)-5-methoxy-6-(3-(1-methyl-1H-pyrazol-3-yl)phenyl)-2-(morpholin-3-ylmethoxy)-N-(pyridin-4-yl)pyrimidin-4-amine] the value was 1 to 10 µM; for `Cn1ccc(-c2cccc(-c3nc(N4CCOCC4)nc(Nc4cccnc4)c3P(C)(C)=O)c2)n1` [Compound 45, dimethyl(4-(3-(1-methyl-1H-pyrazol-3-yl)phenyl)-2-morpholino-6-(pyridin-3-ylamino)pyrimidin-6-yl)phosphine oxide], 1 to 10 µM. Still for that read-out and setting: for `CN(C)C(=O)c1c(Nc2cccnc2)nc(N2CCOCC2)nc1-c1cccc(-n2cccn2)c1` [Compound 69] the value was 1 to 10 µM; for `Cn1ccc(-c2cccc(-c3nc(N4CCOCC4)nc(Nc4cc[n+](C)cc4)c3-c3ncco3)c2)n1` [Compound 73], 1 to 10 µM; for `O=c1[nH]c2ccc(-n3cccn3)cc2c2nc(N3CCOCC3)nc(Nc3ccncc3)c12` [Compound 64, 2-morpholino-9-pyrazol-1-yl-4-(4-pyridylamino)-6H-pyrimido[5,4-c]quinolin-5-one], 1 to 10 µM.

`COc1c(N2CCOCC2)nc(-c2cccc(-n3cccn3)c2)nc1N1CCN(C)C(=O)C1` [Compound 36] returned an IC50 in assay [2] of 1 to 10 µM. Still for that read-out and setting: for `COc1c(Nc2ccncc2)nc(N2CCOCC2)nc1-c1cccc(-c2ccn(C)n2)c1` [Compound 3, 5-methoxy-6-(3-(1-methyl-1H-pyrazol-3-yl)phenyl)-2-morpholino-N-(pyridin-4-yl)pyrimidin-4-amine] the value was 0.01 to 0.1 µM. Same read-out and setting: the figure for `COc1ccc(-c2nc(N3CCOCC3)nc(Nc3cccnc3)c2OC)cc1OC` [Compound 22] is 1 to 10 µM.

Turning to `COc1ccc(-c2nc(N3CCOCC3)nc(Nc3ccncc3)c2OC)nc1OC` [Compound 51, 6-(5,6-dimethoxypyridin-2-yl)-5-methoxy-2-morpholino-N-(pyridin-4-yl)pyrimidin-4-amine], the IC50 in assay [2] lay in the range of 0.1 to 1 µM.

As for `COc1c(-c2cccc(-c3ccn(C)n3)c2)nc(N2CCOCC2)nc1-c1cnn(C)c1` [Compound 52, 4-(5-methoxy-4-(3-(1-methyl-1H-pyrazol-3-yl)phenyl)-6-(1-methyl-1H-pyrazol-4-yl)pyrimidin-2-yl)morpholine], the IC50 in assay [2] was 1 to 10 µM. On the same count and under the same terms, the figure for `CN(C)C(=O)c1c(Nc2ccncc2)nc(N2CCOCC2)nc1-c1cccc(-c2ccn(C)n2)c1` [Compound 66] is 0.1 to 1 µM.
